Test [1] relates to SKBR3 (PI3Kα-Wild Type) cell line. The test is described as follows: HTRF phospho-AKT(S473) cell assay in SKBR3 cells. As to conditions: Homo sapiens, SK-BR-3; SKBR3 (PI3Kα-Wild Type) cells, HTRF phospho-AKT(S473), 2 hours compound incubation, PDGF-BB stimulated. Format: cell-based, human. The essentials: (§1)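 Cells plated overnight (T47D in RPMI/10% FBS/0.2 units/mL insulin; SKBR3 in McCoy's 5A/10% FBS), then given 12-point 1:3 compound series (top 5 μM T47D, 10 μM SKBR3; ≤0.5% DMSO) for 2 h at 37° C. SKBR3 stimulated with 70 ng/ml PDGF-BB for final 15 min. Lysate pAKT(S473) by HTRF; IC50 calculated.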
Background: In TR-FRET formats the signal depends on donor and acceptor labels being close together.

Test [2] concerns T47D (PI3Kα-H1047R) cell line. In words: HTRF phospho-AKT(S473) cell assay in T47D cells. As to conditions: Homo sapiens; T47D (PI3Kα-H1047R) cells, HTRF phospho-AKT(S473), 2 hours compound incubation. Format: cell-based, human. The essentials: as §1

SMILES strings stand for the structures. A value given as a limit tells only on which side of the number the result lay.

By IC50 is commonly meant the concentration that gives 50% inhibition. A higher IC50 goes with weaker potency in that assay.

For the molecule `COc1cn(C)nc1C1CCN(c2nc3c([C@@H](C)Nc4ccc(Cl)nc4C(=O)NS(C)(=O)=O)cc(C)cc3c(=O)n2C)CC1` [Compound 316, (R)-6-chloro-3-((1-(2-(4-(4-methoxy-1-methyl-1H-pyrazol-3-yl)piperidin-1-yl)-3,6-dimethyl-4-oxo-3,4-dihydroquinazolin-8-yl)ethyl)amino)-N-(methylsulfonyl) picolinamide], the IC50 in test [1] is 1000 to 5000 nM; in test [2], 250 to 500 nM.
Turning to `COc1ccn(C2CCN(c3nc4c([C@@H](C)Nc5ccc(Cl)nc5C(=O)NS(C)(=O)=O)cc(C)cc4c(=O)n3C)CC2)n1` [Compound 317, (R)-6-chloro-3-((1-(2-(4-(3-methoxy-1H-pyrazol-1-yl)piperidin-1-yl)-3,6-dimethyl-4-oxo-3,4-dihydroquinazolin-8-yl)ethyl)amino)-N-(methylsulfonyl) picolinamide], the IC50 in test [1] lay in the range of 1000 to 5000 nM; in test [2] it was 250 to 500 nM.
For `COc1ccnn1C1CCN(c2nc3c([C@@H](C)Nc4ccc(Cl)nc4C(=O)NS(C)(=O)=O)cc(C)cc3c(=O)n2C)CC1` [Compound 318, (R)-6-chloro-3-((1-(2-(4-(5-methoxy-1H-pyrazol-1-yl)piperidin-1-yl)-3,6-dimethyl-4-oxo-3,4-dihydroquinazolin-8-yl)ethyl)amino)-N-(methylsulfonyl) picolinamide] the same measures were 1000 to 5000 nM and less than 250 nM.
Consider `Cc1cc([C@@H](C)Nc2ccc(Cl)nc2C(=O)NS(C)(=O)=O)c2nc(N3CCC(c4ccn(C)c(=O)c4)CC3)n(C)c(=O)c2c1` [Compound 319, (R)-6-chloro-3-((1-(3,6-dimethyl-2-(4-(1-methyl-2-oxo-1,2-dihydropyridin-4-yl)piperidin-1-yl)-4-oxo-3,4-dihydroquinazolin-8-yl)ethyl)amino)-N-(methylsulfonyl) picolinamide], for which the results for the IC50 in test [1] and in test [2] were 1000 to 5000 nM and less than 250 nM, respectively.
For `Cc1cc([C@@H](C)Nc2ccc(Cl)nc2C(=O)NS(C)(=O)=O)c2nc(N3CC[C@@H](Oc4cnn(C)c4)C3)n(C)c(=O)c2c1` [Compound 320, 6-chloro-3-(((R)-1-(3,6-dimethyl-2-((R)-3-((1-methyl-1H-pyrazol-4-yl)oxy)pyrrolidin-1-yl)-4-oxo-3,4-dihydroquinazolin-8-yl)ethyl)amino)-N-(methylsulfonyl) picolinamide] the same measures were 1000 to 5000 nM and less than 250 nM.
In the same order, the values of `Cc1cc([C@@H](C)Nc2ccc(Cl)nc2C(=O)NS(C)(=O)=O)c2nc(N3C[C@H]4C[C@@H](c5cnn(C)c5)[C@@H]3C4)n(C)c(=O)c2c1` [Compound 321, 6-chloro-3-(((R)-1-(3,6-dimethyl-2-((1S,4S,6RS)-6-(1-methyl-1H-pyrazol-4-yl)-2-azabicyclo[2.2.1]heptan-2-yl)-4-oxo-3,4-dihydroquinazolin-8-yl)ethyl)amino)-N-(methylsulfonyl) picolinamide] are 1000 to 5000 nM and 250 to 500 nM.
For `COc1cc(C2CCN(c3nc4c([C@@H](C)Nc5ccc(Cl)nc5C(=O)NS(C)(=O)=O)cc(C)cc4c(=O)n3C)CC2)n(C)n1` [Compound 325, (R)-6-chloro-3-((1-(2-(4-(3-methoxy-1-methyl-1H-pyrazol-5-yl)piperidin-1-yl)-3,6-dimethyl-4-oxo-3,4-dihydroquinazolin-8-yl)ethyl)amino)-N-(methylsulfonyl) picolinamide] the same measures were 1000 to 5000 nM and less than 250 nM.
`COc1ccccc1-n1ncc2c1CN(c1nc3c([C@@H](C)Nc4ccc(Cl)nc4C(=O)NS(C)(=O)=O)cc(C)cc3c(=O)n1C)C2` [Compound 326, (R)-6-chloro-3-((1-(2-(1-(2-methoxyphenyl)-4,6-dihydropyrrolo[3,4-c]pyrazol-5(1H)-yl)-3,6-dimethyl-4-oxo-3,4-dihydroquinazolin-8-yl)ethyl)amino)-N-(methylsulfonyl) picolinamide]: the results for the concentration for half-maximal inhibition (IC50) in test [1] and in test [2] were 1000 to 5000 nM and less than 250 nM, respectively.
Turning to `COc1cccnc1-n1cc2c(n1)CN(c1nc3c([C@@H](C)Nc4ccc(Cl)nc4C(=O)NS(C)(=O)=O)cc(C)cc3c(=O)n1C)C2` [Compound 327, (R)-6-chloro-3-((1-(2-(2-(3-methoxypyridin-2-yl)-2,6-dihydropyrrolo[3,4-c]pyrazol-5(4H)-yl)-3,6-dimethyl-4-oxo-3,4-dihydroquinazolin-8-yl)ethyl)amino)-N-(methylsulfonyl) picolinamide], the IC50 lay in the range of 1000 to 5000 nM in test [1] and 250 to 500 nM in test [2].
For `Cc1cc([C@@H](C)Nc2ccc(Cl)nc2C(=O)NS(C)(=O)=O)c2nc(N3CCC4(CCCCOC4)CC3)n(C)c(=O)c2c1` [Compound 328, (R)-6-chloro-3-((1-(3,6-dimethyl-4-oxo-2-(8-oxa-3-azaspiro[5.6]dodecan-3-yl)-3,4-dihydroquinazolin-8-yl)ethyl)amino)-N-(methylsulfonyl) picolinamide] the same measures were no less than 5000 nM and 250 to 500 nM.
As for `Cc1cc([C@@H](C)Nc2ccc(Cl)nc2C(=O)NS(C)(=O)=O)c2nc(N3CC[C@@H](Oc4cnn(CC(F)(F)F)c4)C3)n(C)c(=O)c2c1` [Compound 329, 6-chloro-3-(((R)-1-(3,6-dimethyl-4-oxo-2-((R)-3-((1-(2,2,2-trifluoroethyl)-1H-pyrazol-4-yl)oxy)pyrrolidin-1-yl)-3,4-dihydroquinazolin-8-yl)ethyl)amino)-N-(methylsulfonyl) picolinamide], the figures for the IC50 in test [1] and in test [2] were 1000 to 5000 nM and less than 250 nM, respectively.
In the same order, the values of `Cc1cc([C@@H](C)Nc2ccc(Cl)nc2C(=O)NS(C)(=O)=O)c2nc(N3CC[C@H](Oc4cnn(CC(F)(F)F)c4)C3)n(C)c(=O)c2c1` [Compound 330, 6-chloro-3-(((R)-1-(3,6-dimethyl-4-oxo-2-((S)-3-((1-(2,2,2-trifluoroethyl)-1H-pyrazol-4-yl)oxy)pyrrolidin-1-yl)-3,4-dihydroquinazolin-8-yl)ethyl)amino)-N-(methylsulfonyl) picolinamide] are 1000 to 5000 nM and less than 250 nM.
Regarding `Cc1cc([C@@H](C)Nc2ccc(Cl)nc2C(=O)NS(C)(=O)=O)c2nc(N3CC[C@H](Oc4cnn(C)c4)C3)n(C)c(=O)c2c1` [Compound 331, 6-chloro-3-(((R)-1-(3,6-dimethyl-2-((S)-3-((1-methyl-1H-pyrazol-4-yl)oxy)pyrrolidin-1-yl)-4-oxo-3,4-dihydroquinazolin-8-yl)ethyl)amino)-N-(methylsulfonyl) picolinamide], the IC50 in test [1] is 1000 to 5000 nM; in test [2], less than 250 nM.
For `Cc1cc([C@@H](C)Nc2ccc(Cl)nc2C(=O)NS(C)(=O)=O)c2nc(N3CCc4nocc4C3)n(C)c(=O)c2c1` [Compound 332, (R)-6-chloro-3-((1-(2-(6,7-dihydroisoxazolo[4,3-c]pyridin-5(4H)-yl)-3,6-dimethyl-4-oxo-3,4-dihydroquinazolin-8-yl)ethyl)amino)-N-(methylsulfonyl) picolinamide] the same measures were 1000 to 5000 nM and less than 250 nM.
For `Cc1cc([C@@H](C)Nc2ccc(Cl)nc2C(=O)NS(C)(=O)=O)c2nc(-c3ccc(O[C@@H]4CCNCC4(F)F)nc3)n(C)c(=O)c2c1` [Compound 333, 6-chloro-3-(((R)-1-(2-(6-(((R)-3,3-difluoropiperidin-4-yl)oxy)pyridin-3-yl)-3,6-dimethyl-4-oxo-3,4-dihydroquinazolin-8-yl)ethyl)amino)-N-(methylsulfonyl) picolinamide] the same measures were 1000 to 5000 nM and less than 250 nM.
For `Cc1cc([C@@H](C)Nc2ccc(Cl)nc2C(=O)NS(C)(=O)=O)c2nc(N3CCc4nn(C5COC5)cc4C3)n(C)c(=O)c2c1` [Compound 334, (R)-6-chloro-3-((1-(3,6-dimethyl-2-(2-(oxetan-3-yl)-2,4,6,7-tetrahydro-5H-pyrazolo[4,3-c]pyridin-5-yl)-4-oxo-3,4-dihydroquinazolin-8-yl)ethyl)amino)-N-(methylsulfonyl) picolinamide] the same measures were 1000 to 5000 nM and less than 250 nM.
For `Cc1cc([C@@H](C)Nc2ccc(Cl)nc2C(=O)NS(C)(=O)=O)c2nc(N3CCc4c(cnn4C4COC4)C3)n(C)c(=O)c2c1` [Compound 335, (R)-6-chloro-3-((1-(3,6-dimethyl-2-(1-(oxetan-3-yl)-1,4,6,7-tetrahydro-5H-pyrazolo[4,3-c]pyridin-5-yl)-4-oxo-3,4-dihydroquinazolin-8-yl)ethyl)amino)-N-(methylsulfonyl) picolinamide], the IC50 in test [1] was 1000 to 5000 nM; in test [2] it was less than 250 nM.
For `Cc1cc([C@@H](C)Nc2ccc(Cl)nc2C(=O)NS(C)(=O)=O)c2nc(N3C[C@@H]4[C@H](C3)[C@H]4c3cnn(C)c3)n(C)c(=O)c2c1` [Compound 336, 6-chloro-3-(((R)-1-(3,6-dimethyl-2-((1R,5S,6S)-6-(1-methyl-1H-pyrazol-4-yl)-3-azabicyclo[3.1.0]hexan-3-yl)-4-oxo-3,4-dihydroquinazolin-8-yl)ethyl)amino)-N-(methylsulfonyl) picolinamide] the same measures were 1000 to 5000 nM and less than 250 nM.
In the same order, the values of `Cc1cc([C@@H](C)Nc2ccc(Cl)nc2C(=O)NS(C)(=O)=O)c2nc(N3CCC(c4cc(N)n(C)n4)CC3)n(C)c(=O)c2c1` [Compound 338, (R)-3-((1-(2-(4-(5-amino-1-methyl-1H-pyrazol-3-yl)piperidin-1-yl)-3,6-dimethyl-4-oxo-3,4-dihydroquinazolin-8-yl)ethyl)amino)-6-chloro-N-(methylsulfonyl) picolinamide] are 1000 to 5000 nM and less than 250 nM.

The record behind these values is patent publication US12281122B1, “PI3K inhibitors” (Cogent Biosciences, Inc., priority 2023, dated 2025).
